How the values were obtained:
E. coli 10536 = assay: In vivo forearm study with lotion, residual E. coli by cup scrub method; conditions: lotion with 3% niacinamide, forearm of human volunteers, twice a day
Protocol: To confirm the findings from the in vitro experiments, the effect of Niacinamide on healthy human volunteers was tested in vivo. The volunteers were asked to apply a lotion with and without niacinamide (3%) on their forearm twice a day. After 7 days of application, the spots were extracted in PBS and ELISA was performed for detection of Psoriasin and LL-37 AMPs.
Glycerol stock of E. coli (10536) was inoculated in 30 ml TSB medium and culture was incubated overnight at 37°C in shaker incubator. Overnight culture was sub cultured on TSA slants and incubated overnight at 37°C then the slants were stored at 4°C (once in 15 days, slants were prepared freshly).
E. coli culture from slant was sub cultured on TSA plate and incubated overnight at 37°C. Overnight grown plate culture of E. coli was suspended in 6 to 7 ml of Sodium phosphate buffer (10mM). Density of culture was adjusted to 1 OD620 using spectrophotometer and used for clinical studies.
This technique is included in the ASTM method, E2752 - 10 (Standard guide for evaluation of residual effectiveness of antibacterial). The cup and rod were made up of Teflon and the area of the cup is 2.84 cm^2. The cup was used to hold the buffer on skin and rod was used for scrubbing, for better recovery of skin AMP and/or residual bacteria from skin. The duration of scrubbing was 1 min. […]

Psoriasin (S100A7) = assay: Psoriasin ELISA of keratinocyte culture supernatant; type: cell-based, human; conditions: detected by ELISA, keratinocytes
Protocol: (§1) Human primary keratinocytes prepared from neonatal foreskin were obtained from (Lonza India) and cultured in serum-free keratinocyte growth medium with defined growth supplements (Invitrogen). Keratinocytes were cultured in 12 and 24 well tissue culture plates (BD Falcon) and treated cells at a confluence of 60-70%. Keratinocytes stimulation was performed in KGM with growth supplement and all experiment was done between passages 3 to 5.
Primary keratinocytes were seeded in 12-well plates (BD falcon). At 60 to 70% confluency, cells were treated with different concentration of Niacinamide for 72h. After 72 hours of incubation cell culture supernatant was stored at -70°C until used for ELISA. All ELISA reagents and samples were brought to room temperature prior to the assay. Cell culture supernatant samples were centrifuged at 5000 rpm for 10 minutes before use. 100 ↘l of undiluted sample of cell culture supernatant was used for checking the psoriasin level by using ELISA kit from CircuLex. The clinical samples were diluted in to 1:25 in dilution buffer and used 100↘l from diluted samples for checking psoriasin level by ELISA. In case of LL-37, 100 ↘l of undiluted samples from in vitro as well as clinical samples were used for checking LL-37 level by ELISA (Hycult Biotech).

E. coli = assay: Human volunteer study with Vaseline healthy white cream, E. coli count on forearm; type: in vivo; conditions: two times per day for 1 day, control 4.3
Protocol: An experiment using the following protocol was conducted: • 1. Volunteers were given Lux™ soap for use and asked not to use any other soap or moisturizers on their forearm for 7 days before the start of the study. • 2. Volunteer were be asked to apply Vaseline™ healthy white base cream and Vaseline™ healthy white formulated with Niacinamide (1%, 2% and 3%) at various spots on the forearm. • 3. Volunteers were asked to repeat […] for two times per day for 1 day, morning after bath and night just before sleep. The volunteers were asked not to wash the forearms after application of formulations at night. • 4. On day 2, the forearms were washed by the investigator with a non-antibacterial soap bar and asked the volunteers to wait for 6 hours under controlled conditions (24 ±2°C and 45%±5% RH) • 5. After 6 hours of waiting, ∼10^6 E. coli were applied on the forearm to each spot separately. The contact time of E. coli on skin was 15 minutes. • 6. After 15 minutes, the sample was extracted from the forearm using the cup-rod method. • 7. E. coli was counted using standard microbiological method.

[1] = tested on: psoriasin gene expression; assay: Psoriasin gene expression in primary keratinocytes, quantitative real-time PCR; type: cell-based, human
Protocol: as §1
(§2) NHEKs were cultured in 12-well plates (BD, Falcon) at 6 × 10^4 cells per well. After 24h of incubation, 50% media was replaced with fresh media. On day 3, cells were treated with different concentrations of Niacinamide with fresh media for 16-18 hours. Cells were harvested in RLT buffer (Qiagen) and samples were stored at -70°C till used for RNA isolation.
(§3) Total RNA was isolated using RNeasy Mini kit from Qiagen, according to the manufacturer's instructions. […]
(§4) Real time PCR was carried out using SYBR green method as per the manufacturer's (Bio-Rad, USA) instructions using thermal controlled Chromo4 machine (Bio-Rad, USA). 5µl of 1:10 diluted sample of cDNA and 1.5pmole of specific primers were used in each reaction by using a standardized PCR program (i.e. 94°C for 5 minutes followed by 50 cycles of "94°C for 15 seconds, 60°C for 30sec, 72°C for 30 seconds) and results were analysed by using 2^-ΔΔCT method. […]

S-100-A8 = assay: AMP secretion by primary keratinocytes, mass spectrometry of secretome (PSM); type: cell-based; conditions: Niacinamide 1mg/ml, 72 hours; control sample 1
Protocol: (§5) The following procedure was used to determine the AMPs induced as a consequence of niacinamide on keratinocte cells. • 1. Primary keratinocytes were seeded in 12 well plates with 1 ml of KGM complete media. (Seeded 60,000 cells/well at Passage-4). • 2. Plates were incubated in the CO2 incubator for 48 hours. • 3. After 48 hours of incubation, cells were treated with and without Niacinamide 1mg/ml concentration in duplicate wells (fresh media was used for treatment). • 4. After 72 hours of incubation, cell culture supernatant was transferred in to 1.5 ml eppendorf tubes respectively. • 5. Samples were then passed through 20 kDa cutoff filters to remove high molecular weight proteins. • 6. Eluted samples, containing <20kDa proteins were transferred to 15ml sterile centrifuge tubes. • 7. Then, chilled acetone (HPLC grade) was added to the eluted samples (1 ml of sample:4ml of acetone) • 8. Tubes were transferred to -20°C for 24 hours to precipitate the proteins. • 9. After 24 hours, tubes were centrifuged at 14000g for 40 minutes at 4°C. • 10. The supernatant was discarded and the protein pellet was analysed using mass spectrometry for proteins.
(§6) The increased level of secretion of AMPs is measured by a PSM value (a peptide spectrum match scoring function) which is a relative measure of abundance of the peptide in the secretome. Table - 5

S-100-A11 = assay: as above; type: cell-based; conditions: Niacinamide 1mg/ml, 72 hours; control sample 2
Protocol: as §5, §6

Lactoferrin = assay: as above; type: cell-based; conditions: Niacinamide 1mg/ml, 72 hours; control sample 1
Protocol: as §5, §6

Lipocalin -2 = assay: as above; type: cell-based; conditions: Niacinamide 1mg/ml, 72 hours; control sample 1
Protocol: as §5, §6

S100-A9 = assay: as above; type: cell-based; conditions: Niacinamide 1mg/ml, 72 hours; control sample 2
Protocol: as §5, §6

Elafin = assay: as above; type: cell-based; conditions: Niacinamide 1mg/ml, 72 hours; control sample 1
Protocol: as §5, §6

Lipocalin-1 = assay: as above; type: cell-based; conditions: Niacinamide 1mg/ml, 72 hours; control sample 0
Protocol: as §5, §6

Lysozyme C = assay: as above; type: cell-based; conditions: Niacinamide 1mg/ml, 72 hours; control sample 2
Protocol: as §5, §6

LL-37 gene expression = LL-37 gene expression in primary keratinocytes, quantitative real-time PCR; type: cell-based; conditions: Homo sapiens, Keratinocyte, 18 hours, Niacinamide 1.22 mg/ml, control = 1.0, read-out: Fold change (LL-37 gene expression)
Protocol: as §1, §2, §3, §4

With NC(=O)c1cccnc1 [Niacinamide] the “Residual log of E.Coli measured after one day of applying a composition” value (E. coli 10536; n= 28, basal 4.21, lotion without niacinamide 3.44) was 2.31, the “Residual log of E.Coli measured after 7 days of applying a composition” value (E. coli 10536; n= 34, basal 4.41, lotion without niacinamide 3.56) was 2.39 and the “secretion of psoriasin AMP (in words)” value (Psoriasin (S100A7)) was “able to induce the secretion of psoriasin AMP”. For the same compound, the “Residual log of E. Coli” value (E. coli; 1 % niacinamide in Vaseline healthy white cream) was 3.5, the “Residual log of E. Coli” value (E. coli; 2% niacinamide in Vaseline healthy white cream) was 3.0 and the “Residual log of E. Coli” value (E. coli; 3% niacinamide in Vaseline healthy white cream) was 2.7. The “induction of psoriasin gene expression (in words)” value ([1]; 1.22 mg/ml) was “unable to induce psoriasin gene expression”, the fold induction at 1220 µg/mL ([1]; Homo sapiens, Keratinocyte, primary keratinocytes, 18 hours, Niacinamide 1.22 mg/ml, control = 1.0, read-out: Fold change (psoriasin gene expression)) was 1.1 and the “PSM value with niacinamide treatment, S-100-A8” value (S-100-A8) was 3. For the same compound, the “PSM value with niacinamide treatment, S-100-A11” value (S-100-A11) was 5, the “PSM value with niacinamide treatment, Lactoferrin” value (Lactoferrin) was 7 and the “PSM value with niacinamide treatment, Lipocalin -2” value (Lipocalin -2) was 4. For the same compound, the “PSM value with niacinamide treatment, S100-A9” value (S100-A9) was 4, the “PSM value with niacinamide treatment, Elafin” value (Elafin) was 3 and the “PSM value with niacinamide treatment, Lipocalin-1” value (Lipocalin-1) was 2. The “PSM value with niacinamide treatment, Lysozyme C” value (Lysozyme C) was 4 and the fold induction at 1220 µg/mL (LL-37 gene expression) was 2.4.
